Measured values as given in US12162893B2 (Erasca, Inc., priority 2020, dated 2024).

Target: T1, mutant G12C K-RAS (Homo sapiens, UniProt P01116, G12C)
T1 construct: made in house; host or cells: E. coli BL21
Test: covalent adduct formation (CAF) with mutant G12C K-RAS
Type: binding
Conditions: Table 6; 10 μM, 1 h
Protocol: Embodiments disclosed herein are further illustrated by the following examples in Tables 1-4 and the Examples hereinbelow. The Tables indicate the compound number, structure, the observed mass spectral molecular weight peak, and covalent adduct formation (CAF) with a mutant G12C K-RAS after 60 minutes at a concentration of 10 micromolar.

% CAF @ 10 μM,1 h | Structure (SMILES)
91.2% | C=CC(=O)N1C[C@H](C)N(c2nc(=O)n3c4c(c(-c5ccc(F)cc5F)c(Cl)cc24)OC[C@@H]3CCCN2CCOCC2)C[C@H]1C [Example 215, (3S)-7-((2S,5R)-4-acryloyl-2,5-dimethylpiperazin-1-yl)-9-chloro-10-(2,4-difluorophenyl)-3-(3-morpholinopropyl)-2,3-dihydro-5H-[1,4]oxazino[2,3,4-ij]quinazolin-5-one]
73.8% | C=CC(=O)N1C[C@H](C)N(c2nc(=O)n3c4c(c(-c5cc(Cl)ccc5F)c(Cl)cc24)OC[C@H]3CCCN2CCOCC2)C[C@H]1C [Example 216, (3R)-7-((2S,5R)-4-acryloyl-2,5-dimethylpiperazin-1-yl)-9-chloro-10-(5-chloro-2-fluorophenyl)-3-(3-morpholinopropyl)-2,3-dihydro-5H-[1,4]oxazino[2,3,4-ij]quinazolin-5-one]
83.4% | C=CC(=O)N1C[C@H](C)N(c2nc(=O)n3c4c(c(-c5ccc(F)cc5F)c(Cl)cc24)OC[C@@H]3CCN2CCOCC2)C[C@H]1C [Example 217, (3S)-7-((2S,5R)-4-acryloyl-2,5-dimethylpiperazin-1-yl)-9-chloro-10-(2,4-difluorophenyl)-3-(2-morpholinoethyl)-2,3-dihydro-5H-[1,4]oxazino[2,3,4-ij]quinazolin-5-one]
95.6% | C=CC(=O)N1C[C@H](C)N(c2nc(=O)n3c4c(c(-c5ccc(F)cc5F)c(Cl)cc24)OC[C@H]3CCCN2CCOCC2)C[C@H]1C [Example 218, (3R)-7-((2S,5R)-4-acryloyl-2,5-dimethylpiperazin-1-yl)-9-chloro-10-(2,4-difluorophenyl)-3-(3-morpholinopropyl)-2,3-dihydro-5H-[1,4]oxazino[2,3,4-ij]quinazolin-5-one]
0% | C=CC(=O)N1C[C@H](C)N(c2nc(=O)n3c4c(c(-c5c(C)ccc6[nH]nnc56)ccc24)OCC3)C[C@H]1C [Example 219, 7-((2S,5R)-4-acryloyl-2,5-dimethylpiperazin-1-yl)-10-(5-methyl-1H-benzo[d][1,2,3]triazol-4-yl)-2,3-dihydro-5H-[1,4]oxazino[2,3,4-ij]quinazolin-5-one]
0% | C=CC(=O)N1C[C@H](C)N(c2nc(=O)n3c4c(c(-c5c(O)cccc5F)c(Cl)cc24)OC[C@@H]3CN2CCC(F)(F)C2)C[C@H]1C [Example 220, (3S,10R)-7-((2S,5R)-4-acryloyl-2,5-dimethylpiperazin-1-yl)-9-chloro-3-((3,3-difluoropyrrolidin-1-yl)methyl)-10-(2-fluoro-6-hydroxyphenyl)-2,3-dihydro-5H-[1,4]oxazino[2,3,4-ij]quinazolin-5-one]
70.9% | C=CC(=O)N1C[C@H](C)N(c2nc(=O)n3c4c(c(-c5c(O)cccc5F)c(Cl)cc24)OC[C@@H]3CN2CCC(F)(F)C2)C[C@H]1C [Example 221, (3S,10S)-7-((2S,5R)-4-acryloyl-2,5-dimethylpiperazin-1-yl)-9-chloro-3-((3,3-difluoropyrrolidin-1-yl)methyl)-10-(2-fluoro-6-hydroxyphenyl)-2,3-dihydro-5H-[1,4]oxazino[2,3,4-ij]quinazolin-5-one]
0% | C=CC(=O)N1C[C@H](C)N(c2nc(=O)n3c4c(c(-c5c(F)ccc6[nH]nnc56)ccc24)OCC3)C[C@H]1C [Example 223, 7-((2S,5R)-4-acryloyl-2,5-dimethylpiperazin-1-yl)-10-(5-fluoro-1H-benzo[d][1,2,3]triazol-4-yl)-2,3-dihydro-5H-[1,4]oxazino[2,3,4-ij]quinazolin-5-one]
0% | C=CC(=O)N1C[C@H](C)N(c2nc(=O)n3c4c(c(-c5c(F)ccc6cc[nH]c(=O)c56)ccc24)OCC3)C[C@H]1C [Example 224, 7-((2S,5R)-4-acryloyl-2,5-dimethylpiperazin-1-yl)-10-(7-fluoro-1-oxo-1,2-dihydroisoquinolin-8-yl)-2,3-dihydro-5H-[1,4]oxazino[2,3,4-ij]quinazolin-5-one]
0% | C=CC(=O)N1C[C@H](C)N(c2nc(=O)n3c4c(c(-c5c(F)ccc6c5C(=O)NC6)ccc24)OCC3)C[C@H]1C [Example 231, 7-((2S,5R)-4-acryloyl-2,5-dimethylpiperazin-1-yl)-10-(5-fluoro-3-oxoisoindolin-4-yl)-2,3-dihydro-5H-[1,4]oxazino[2,3,4-ij]quinazolin-5-one]
82.4% | C=CC(=O)N1C[C@H](C)N(c2nc(=O)n3c4c(c(-c5ccc(F)cc5F)c(Cl)cc24)OC[C@@H]3CN2CCC2)C[C@H]1C [Example 232, (3S)-7-((2S,5R)-4-acryloyl-2,5-dimethylpiperazin-1-yl)-3-(azetidin-1-ylmethyl)-9-chloro-10-(2,4-difluorophenyl)-2H-[1,4]oxazino[2,3,4-ij]quinazolin-5(3H)-one]
76% | C=CC(=O)N1C[C@H](C)N(c2nc(=O)n3c4c(c(-c5ccc(F)cc5F)c(Cl)cc24)OC[C@H]3CN2CCC2)C[C@H]1C [Example 233, (3R)-7-((2S,5R)-4-acryloyl-2,5-dimethylpiperazin-1-yl)-3-(azetidin-1-ylmethyl)-9-chloro-10-(2,4-difluorophenyl)-2H-[1,4]oxazino[2,3,4-ij]quinazolin-5(3H)-one]
71.3% | C=CC(=O)N1C[C@H](C)N(c2nc(=O)n3c4c(c(-c5ccc(F)cc5F)c(Cl)cc24)OC[C@H]3Cn2cccn2)C[C@H]1C [Example 234, (3R)-3-((1H-pyrazol-1-yl)methyl)-7-((2S,5R)-4-acryloyl-2,5-dimethylpiperazin-1-yl)-9-chloro-10-(2,4-difluorophenyl)-2H-[1,4]oxazino[2,3,4-ij]quinazolin-5(3H)-one]
44.5% | C=CC(=O)N1C[C@H](C)N(c2nc(=O)n3c4c(c(-c5ccc(F)cc5F)c(Cl)cc24)OC[C@H]3CN(C)CC(F)(F)F)C[C@H]1C [Example 235, (3R)-7-((2S,5R)-4-acryloyl-2,5-dimethylpiperazin-1-yl)-9-chloro-10-(2,4-difluorophenyl)-3-((methyl(2,2,2-trifluoroethyl)amino)methyl)-2H-[1,4]oxazino[2,3,4-ij]quinazolin-5(3H)-one]
60.9% | C=CC(=O)N1C[C@H](C)N(c2nc(=O)n3c4c(c(-c5ccc(F)cc5F)c(Cl)cc24)OC[C@@H]3Cn2cccn2)C[C@H]1C [Example 236, (3S)-3-((1H-pyrazol-1-yl)methyl)-7-((2S,5R)-4-acryloyl-2,5-dimethylpiperazin-1-yl)-9-chloro-10-(2,4-difluorophenyl)-2H-[1,4]oxazino[2,3,4-ij]quinazolin-5(3H)-one]
78.5% | C=CC(=O)N1C[C@H](C)N(c2nc(=O)n3c4c(c(-c5ccc(F)cc5F)c(Cl)cc24)OC[C@@H]3CN(C)CC(F)(F)F)C[C@H]1C [Example 237, (3S)-7-((2S,5R)-4-acryloyl-2,5-dimethylpiperazin-1-yl)-9-chloro-10-(2,4-difluorophenyl)-3-((methyl(2,2,2-trifluoroethyl)amino)methyl)-2H-[1,4]oxazino[2,3,4-ij]quinazolin-5(3H)-one]
79.4% | C=CC(=O)N1C[C@H](C)N(c2nc(=O)n3c4c(c(-c5ccc(F)cc5F)c(Cl)cc24)OC[C@@H]3Cn2ccnc2)C[C@H]1C [Example 238, (3S)-3-((1H-imidazol-1-yl)methyl)-7-((2S,5R)-4-acryloyl-2,5-dimethylpiperazin-1-yl)-9-chloro-10-(2,4-difluorophenyl)-2H-[1,4]oxazino[2,3,4-ij]quinazolin-5(3H)-one]
